We go through six molecules from ChEMBL document CHEMBL1156602, “Synthesis and antiviral properties of some polyphenols related to Salvia genus” (Bioorg Med Chem Lett, 2008).

Data set [1] in a line: Cytotoxicity against human MT2 cells after 48 hrs. To be noted: read-out: LD50. The data set is classed as cell-based.
The test system of data set [2] is Human immunodeficiency virus 1. Put plainly: Antiviral activity against HIV1 LAI in MT2 cells assessed as inhibition of virus-induced cytopathic effect. The data set is classed as functional. The conditions noted are these: Human immunodeficiency virus 1, LAI, read-out: ED50 (the source's name). (Cytopathic effects are the visible damage that an infection or toxin causes in cultured cells.)

Data set [3] deals with T1, Human immunodeficiency virus type 1 integrase (Human immunodeficiency virus 1, UniProt Q7ZJM1). Put plainly: Inhibition of HIV1 integrase catalyzed reactions.
In data set [4] the test system is Human immunodeficiency virus 1. Put plainly: Antiviral activity against HIV1 in MT4 cells assessed as inhibition of virus-induced cytopathic effect by MTT assay. In kind it is functional, organism-based. To be noted: Human immunodeficiency virus 1, MT4.
The target of data set [5] is T1, Human immunodeficiency virus type 1 integrase. Description: Inhibition of HIV1 integrase by overall integration assay.
The target is the same in data set [6]. Put plainly: Inhibition of HIV1 integrase strand transfer activity.
The nature of data set [7]: Cytotoxicity against human MT4 cells by MTT assay. The data set is classed as cell-based.
The target of data set [8] is T1, Human immunodeficiency virus type 1 integrase. Put plainly: Inhibition of HIV1 integrase in presence of Mn2+.

T1 sequence (Q7ZJM1 whole entry): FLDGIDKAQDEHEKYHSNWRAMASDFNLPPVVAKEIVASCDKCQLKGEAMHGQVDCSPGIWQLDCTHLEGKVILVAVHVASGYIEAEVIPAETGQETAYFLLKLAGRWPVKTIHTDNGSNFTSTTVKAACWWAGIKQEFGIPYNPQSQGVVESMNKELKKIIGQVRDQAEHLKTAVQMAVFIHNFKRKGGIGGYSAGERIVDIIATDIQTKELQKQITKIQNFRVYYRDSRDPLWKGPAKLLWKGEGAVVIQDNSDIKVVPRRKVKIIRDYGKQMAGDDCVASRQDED

The IC50 is the midpoint of a concentration-inhibition curve. With `O=C(/C=C/c1ccc(O)c(O)c1)O[C@@H]1C[C@](O)(C(=O)O)C[C@@H](OC(=O)/C=C/c2ccc(O)c(O)c2)[C@H]1O`, the CC50 at 48 h in data set [1] was 300000 nM. Moreover, the EC50 in data set [2] is 1900 nM. In data set [3], this molecule yielded an IC50 of 640 nM.
Take `O=C(O)/C=C/c1ccc(O)c(O)c1CC(=O)O`: the EC50 in data set [4] is greater than 44000 nM. Also, the IC50 in data set [5] was found to be 1340 nM; in data set [6], 1090 nM. In data set [7], this molecule displayed a CC50 of 44000 nM.
The matching figures for `O=C(O)/C=C/c1ccc(O)c(O)c1/C(=C/c1ccc(O)c(O)c1)C(=O)O`: greater than 4500 nM, 560 nM, 730 nM and 4500 nM.
The matching figures for `O=C(O)/C=C/c1ccc(O)c2c1C1C(=O)c3cc(O)c(O)cc3C1O2` (racemic): greater than 23300 nM, 150 nM, 300 nM and 23300 nM.
Turning to `O=C(O)/C=C/c1ccc(O)c(O)c1` [CAFFEIC ACID], the IC50 in data set [5] amounted to 2800 nM; in data set [6] it was 24000 nM; in data set [8], 2800 nM.
As for `O=C(/C=C/c1ccc(O)c(O)c1)O[C@@H](C(=O)O)[C@@H](OC(=O)/C=C/c1ccc(O)c(O)c1)C(=O)O` [CICHORIC ACID], in data set [1], the CC50 at 48 h came to 700000 nM.
